Tests used:
mutant G2019S LRRK2 = mutant G2019S LRRK2 (Homo sapiens, UniProt Q5S007, G2019S); experiment: LRRK2 Assay, Format 2 (Lantha Screen), G2019S mutant; assay type: biochemical; parameters: purchased Invitrogen PV4881; settings: geometric mean of 2-4 determinations unless otherwise indicated (a: >=5; b: single determination); read-out: LRRK2, Format 2 G2019S IC50
Description: (§1) LRRK2 kinase activity was measured using Lantha Screen technology from Invitrogen. GST-tagged truncated LRRK2 from Invitrogen (Cat # PV4874) was incubated with a fluorescein-labeled peptide substrate based upon ezrin/radixin/moesin (ERM), also known as LRRKtide (Invitrogen cat # PR8976A), in the presence of a dose response of compound. Upon completion, the assay was stopped and detected with a terbium labeled anti-phospho-ERM antibody (Invitrogen, cat # PR8975A). […] Using Echo acoustic dispensing, 60 nL of compound was transferred to a low volume Corning 384-well assay plate. 3 μL of a working solution of substrate (200 nM LRRKtide, […]) prepared in assay buffer (50 mM HEPES, pH 7.5, 3 mM MgCl2, with 2 mM DTT and 0.01% Brij35 added fresh) was added to the 60 nL compound assay plate. The kinase reaction was started with […] of a working solution of LRRK2 enzyme at a concentration of […]. The final reaction concentrations were 100 nM LRRKtide, […], […] LRRK2 enzyme and a compound dose response with a top dose of 3 mM. The reaction was allowed to progress at room temperature for 30 minutes and then stopped with the addition of […] of detection buffer (20 mM Tris pH 7.6, 0.01% NP-40, 6 mM EDTA with 2 nM terbium labeled anti-phospho-ERM). After an incubation of 1 hour at room temperature, the plate was read on an Envision with an excitation wavelength of 340 nm and a reading emission at both 520 nm and 495 nm. The ratio of the 520 nm and 495 nm emission was used to analyze the data. Inhibition of mutant G2019S LRRK2 (Invitrogen cat # PV4881) was measured in the exact same method. All final concentrations of substrate ATP and enzyme were the same.

[1] = target: T1, GST-tagged truncated LRRK2 (Homo sapiens, UniProt Q5S007); experiment: LRRK2 Assay, Format 2 (Lantha Screen), WT; assay type: biochemical; settings: geometric mean of 2-4 determinations unless otherwise indicated (a: >=5; b: single determination)
T1 construct: GST-tagged truncated LRRK2 from Invitrogen (Cat # PV4874); GST; purchased Invitrogen PV4874
T1 sequence (Q5S007 970-2527 limits assumed): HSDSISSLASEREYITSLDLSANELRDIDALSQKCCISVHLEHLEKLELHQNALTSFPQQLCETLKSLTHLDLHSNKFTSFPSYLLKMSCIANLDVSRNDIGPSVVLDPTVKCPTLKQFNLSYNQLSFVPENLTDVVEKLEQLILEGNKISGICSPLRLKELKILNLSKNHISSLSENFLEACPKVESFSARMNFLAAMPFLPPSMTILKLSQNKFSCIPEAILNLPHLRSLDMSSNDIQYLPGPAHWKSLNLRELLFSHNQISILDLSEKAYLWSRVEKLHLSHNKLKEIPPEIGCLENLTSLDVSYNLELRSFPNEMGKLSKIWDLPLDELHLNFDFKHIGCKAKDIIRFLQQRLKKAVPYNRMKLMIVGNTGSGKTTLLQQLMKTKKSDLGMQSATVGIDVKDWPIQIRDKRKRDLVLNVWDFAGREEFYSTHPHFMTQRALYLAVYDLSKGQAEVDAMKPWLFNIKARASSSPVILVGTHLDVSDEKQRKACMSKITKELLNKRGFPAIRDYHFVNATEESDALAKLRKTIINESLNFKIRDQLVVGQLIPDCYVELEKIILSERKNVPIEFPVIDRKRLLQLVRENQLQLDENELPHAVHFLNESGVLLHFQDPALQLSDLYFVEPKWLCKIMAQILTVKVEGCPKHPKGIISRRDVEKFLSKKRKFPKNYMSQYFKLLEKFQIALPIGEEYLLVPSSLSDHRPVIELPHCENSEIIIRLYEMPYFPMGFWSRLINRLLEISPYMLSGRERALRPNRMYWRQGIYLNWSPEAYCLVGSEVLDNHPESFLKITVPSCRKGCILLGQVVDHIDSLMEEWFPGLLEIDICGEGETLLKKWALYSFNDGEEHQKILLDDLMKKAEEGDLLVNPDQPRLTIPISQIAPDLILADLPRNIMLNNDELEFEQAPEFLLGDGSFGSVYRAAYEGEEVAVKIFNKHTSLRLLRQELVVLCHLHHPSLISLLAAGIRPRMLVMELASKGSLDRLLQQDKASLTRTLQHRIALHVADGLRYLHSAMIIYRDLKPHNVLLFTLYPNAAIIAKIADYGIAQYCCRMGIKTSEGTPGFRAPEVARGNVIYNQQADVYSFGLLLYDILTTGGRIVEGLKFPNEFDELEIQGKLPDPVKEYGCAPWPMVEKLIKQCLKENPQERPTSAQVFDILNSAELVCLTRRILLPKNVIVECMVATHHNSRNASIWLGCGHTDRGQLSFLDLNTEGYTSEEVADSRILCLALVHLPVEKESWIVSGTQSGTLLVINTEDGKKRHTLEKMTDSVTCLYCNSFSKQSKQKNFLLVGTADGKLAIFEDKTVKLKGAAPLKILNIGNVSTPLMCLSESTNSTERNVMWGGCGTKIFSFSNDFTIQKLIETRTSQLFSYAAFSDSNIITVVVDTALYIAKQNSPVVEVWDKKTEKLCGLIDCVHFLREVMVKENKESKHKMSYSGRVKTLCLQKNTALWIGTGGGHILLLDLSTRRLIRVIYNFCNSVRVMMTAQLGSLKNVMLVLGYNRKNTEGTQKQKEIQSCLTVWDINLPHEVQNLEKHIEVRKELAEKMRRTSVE
Description: as §1

mutant G2019S LRRK2, sequence (Q5S007 970-2527 G2019S limits assumed): as the sequence (Q5S007 970-2527 limits assumed) above, with G1050S counted along it

IC50 (mutant G2019S LRRK2) [nM]	IC50 [1] [nM]	SMILES
22.7	18.2	Cc1cn(Cc2nc3cnc4ccc(Cl)cc4c3n2[C@H]2CC[C@@H](F)C2)nn1 (single isomer, unassigned) [Example C55, 8-chloro-1-(cis-3-fluorocyclopentyl)-2-[(4-methyl-1H-1,2,3-triazol-1-yl)methyl]-1H-imidazo[4,5-c]quinoline]
25.6	21.9	Cc1cnn(Cc2nc3cnc4ccc(C#N)cc4c3n2[C@H]2CC[C@@H](F)C2)c1 (single isomer, unassigned) [Example C58, 1-[cis-3-fluorocyclopentyl]-2-[(4-methyl-1H-pyrazol-1-yl)methyl]-1H-imidazo[4,5-c]quinoline-8-carbonitrile]
42.2	29.8	Cc1cc(Cc2nc3cnc4ccc(C#N)cc4c3n2[C@H]2CC[C@@H](F)C2)no1 (single isomer, unassigned) [Example C66]
20.4	15.5	N#Cc1ccc2ncc3nc(Cn4cc(C5CC5)nn4)n([C@@H]4CC[C@H](F)C4)c3c2c1 (single isomer, unassigned; ent-1) [Example 202, 2-[(4-cyclopropyl-1H-1,2,3-triazol-1-yl)methyl]-1-(cis-3-fluorocyclopentyl)-1H-imidazo[4,5-c]quinoline-8-carbonitrile, ENT-1]
16.3	12.2	N#Cc1ccc2ncc3nc(Cc4cscn4)n([C@@H]4CC[C@H](F)C4)c3c2c1 (single isomer, unassigned; ent-1) [Example 203, 1-(cis-3-fluorocyclopentyl)-2-(1,3-thiazol-4-ylmethyl)-1H-imidazo[4,5-c]quinoline-8-carbonitrile, ENT-1]
35.1	22.8	N#CCc1nc2cnc3ccc(Cl)cc3c2n1[C@@H]1CC[C@H](F)C1 (single isomer, unassigned; ent-1) [Example 204, {8-chloro-1-(cis-3-fluorocyclopentyl)-1H-imidazo[4,5-c]quinolin-2-yl}acetonitrile, ENT-1]
18.7	12.8	N#Cc1ccc2ncc3nc(Cc4cc(C(F)(F)F)on4)n([C@@H]4CC[C@H](F)C4)c3c2c1 (single isomer, unassigned; ent-1) [Example 211, 1-(cis-3-fluorocyclopentyl)-2-{[5-(trifluoromethyl)-1,2-oxazol-3-yl]methyl}-1H-imidazo[4,5-c]quinoline-8-carbonitrile, ENT-1]
13.9	13.4	Cc1cnc(Cc2nc3cnc4ccc(C#N)cc4c3n2C2CCOC(C)(C)C2)cn1 (single isomer, unassigned; ent-1) [Example 215, 1-(2,2-dimethyltetrahydro-2H-pyran-4-yl)-2-[(5-methylpyrazin-2-yl)methyl]-1H-imidazo[4,5-c]quinoline-8-carbonitrile, ENT-1]
26.1	20.4	Cc1cn(Cc2nc3cnc4ccc(C#N)cc4c3n2C2CCC(F)C2)nn1 (single isomer, unassigned; ent-1) [Example C73, 1-(cis-3-fluorocyclopentyl)-2-[(4-methyl-1H-1,2,3-triazol-1-yl)methyl]-1H-imidazo[4,5-c]quinoline-8-carbonitrile, ENT-1]
6.84	7.53	COc1ccc(Cc2nc3cnc4ccc(C#N)cc4c3n2C2CCOC(C)(C)C2)nc1 (single isomer, unassigned; ent-2) [Example 207, 1-(2,2-dimethyltetrahydro-2H-pyran-4-yl)-2-[(5-methoxypyridin-2-yl)methyl]-1H-imidazo[4,5-c]quinoline-8-carbonitrile, ENT-2]

Further lines, the compound ahead of its results:

SMILES	IC50 (mutant G2019S LRRK2) [nM]	IC50 [1] [nM]
Cc1cc(Cc2nc3cnc4ccc(C#N)cc4c3n2[C@@H]2CC[C@H](F)C2)on1 (single isomer, unassigned; ent-1) [Example 118, 1-(cis-3-fluorocyclopentyl)-2-[(3-methyl-1,2-oxazol-5-yl)methyl]-1H-imidazo[4,5-c]quinoline-8-carbonitrile, ENT-1]	6.19	4.15
COCc1cn(Cc2nc3cnc4ccc(C#N)cc4c3n2[C@@H]2CC[C@H](F)C2)nn1 (single isomer, unassigned; ent-1) [Example 132, 1-(cis-3-fluorocyclopentyl)-2-{[4-(methoxymethyl)-1H-1,2,3-triazol-1-yl]methyl}-1H-imidazo[4,5-c]quinoline-8-carbonitrile, ENT-1]	10.8	7.49
Cc1cc(Cc2nc3cnc4ccc(C#N)cc4c3n2[C@@H]2CCC[C@@H]2F)no1 (single isomer, unassigned; ent-1) [Example 146, 1-(cis-2-fluorocyclopentyl)-2-[(5-methyl-1,2-oxazol-3-yl)methyl]-1H-imidazo[4,5-c]quinoline-8-carbonitrile, ENT-1]	29.9	17.8
Cc1nn2cc(Cc3nc4cnc5ccc(C#N)cc5c4n3[C@@H]3CC[C@H](F)C3)nc2s1 (single isomer, unassigned; ent-1) [Example 168, 1-(cis-3-fluorocyclopentyl)-2-[(2-methylimidazo[2,1-b][1,3,4]thiadiazol-6-yl)methyl]-1H-imidazo[4,5-c]quinoline-8-carbonitrile, ENT-1]	11.5	7.33
N#CCc1nc2cnc3ccc(F)cc3c2n1[C@@H]1CC[C@H](F)C1 (single isomer, unassigned; ent-1) [Example 170, {8-fluoro-1-(cis-3-fluorocyclopentyl)-1H-imidazo[4,5-c]quinolin-2-yl}acetonitrile, ENT-1]	106	64.4
CC1(C)CC(n2c(Cc3cc(C(F)(F)F)on3)nc3cnc4ccc(C#N)cc4c32)CCO1 (single isomer, unassigned; ent-1) [Example 176, 1-(2,2-dimethyltetrahydro-2H-pyran-4-yl)-2-{[5-(trifluoromethyl)-1,2-oxazol-3-yl]methyl}-1H-imidazo[4,5-c]quinoline-8-carbonitrile, ENT-1]	12.7	13
Cc1cn(Cc2nc3cnc4ccc(C#N)cc4c3n2C2CCCC2(F)F)nn1 (single isomer, unassigned; ent-1) [Example 196, 1-(2,2-difluorocyclopentyl)-2-[(4-methyl-1H-1,2,3-triazol-1-yl)methyl]-1H-imidazo[4,5-c]quinoline-8-carbonitrile, ENT-1]	15.8	18.8
N#Cc1ccc2ncc3nc(Cn4cc(C(F)(F)F)cn4)n([C@@H]4CC[C@H](F)C4)c3c2c1 (single isomer, unassigned; ent-1) [Example 201, 1-(cis-3-fluorocyclopentyl)-2-{[4-(trifluoromethyl)-1H-pyrazol-1-yl]methyl}-1H-imidazo[4,5-c]quinoline-8-carbonitrile, ENT-1]	11.3	7.47
Cc1cc(Cc2nc3cnc4ccc(C#N)cc4c3n2C2CCCC2(F)F)no1 (single isomer, unassigned; ent-2) [Example 144, 1-(2,2-difluorocyclopentyl)-2-[(5-methyl-1,2-oxazol-3-yl)methyl]-1H-imidazo[4,5-c]quinoline-8-carbonitrile, ENT-2]	29.3	19.3
Cc1cc(Cc2nc3cnc4ccc(C#N)cc4c3n2[C@@H]2CCC[C@@H]2F)no1 (single isomer, unassigned; ent-2) [Example 147, 1-(cis-2-fluorocyclopentyl)-2-[(5-methyl-1,2-oxazol-3-yl)methyl]-1H-imidazo[4,5-c]quinoline-8-carbonitrile, ENT-2]	22.6	14.5
Cc1nn2cc(Cc3nc4cnc5ccc(C#N)cc5c4n3[C@@H]3CC[C@H](F)C3)nc2s1 (single isomer, unassigned; ent-2) [Example 169, 1-(cis-3-fluorocyclopentyl)-2-[(2-methylimidazo[2,1-b][1,3,4]thiadiazol-6-yl)methyl]-1H-imidazo[4,5-c]quinoline-8-carbonitrile, ENT-2]	5.55	3.59
CC1(C)CC(n2c(Cc3cc(C(F)(F)F)on3)nc3cnc4ccc(C#N)cc4c32)CCO1 (single isomer, unassigned; ent-2) [Example 177, 1-(2,2-dimethyltetrahydro-2H-pyran-4-yl)-2-{[5-(trifluoromethyl)-1,2-oxazol-3-yl]methyl}-1H-imidazo[4,5-c]quinoline-8-carbonitrile, ENT-2]	914	1220
Cc1cn(Cc2nc3cnc4ccc(C#N)cc4c3n2C2CCCC2(F)F)nn1 (single isomer, unassigned; ent-2) [Example 197, 1-(2,2-difluorocyclopentyl)-2-[(4-methyl-1H-1,2,3-triazol-1-yl)methyl]-1H-imidazo[4,5-c]quinoline-8-carbonitrile, ENT-2]	18.7	12.7

— US10039753B2, “Imidazo[4,5-c]quinoline and imidazo[4,5-c][1,5]naphthyridine derivatives as LRRK2 inhibitors” (Pfizer Inc., priority 2015, dated 2018)
